Measurements published in patent US6281250A, “Retinyl ethers, derivatives and analogues and inhibition of breast carcinogenesis” (Southern Research Institute, priority 1999, dated 2001).
Read-outs that look alike come from different tables or passages of the source.

Key:
in vivo = assay: in vivo
Description: Toxicological evaluations involving measurement of body weights and observations of clinical signs characteristic of retinoid toxicity were accomplished as previously described (Lin et al., 1996).
RTMBE and two of its analogues, together with RME and RPE, were selected for estimation of their toxicities to mice when administered during 28-29 days by gavage in corn oil (Table 8). Mice were evaluated for changes in body weight and for signs of clinical retinoid toxicity (hypervitaminosis A) including alopecia, scaly skin, and limping. In the first experiment, these retinyl ethers were given at equimicromolar doses at three dose levels. The retinyl benzyl ethers (RTMBE, 3c, and 3e) were then tested at higher doses in a second experiment.

[1] = tested on: TPA-induced ornithine decarboxylase (ODC); assay: Inhibition of TPA-induced ornithine decarboxylase (ODC) in mouse skin; format: in vivo
Excerpt: Earlier, several alkyl, alkenyl, or alkynyl retinyl ethers had been assayed for inhibition of TPA-induced ornithine decarboxylase (ODC) in mouse skin and for the suppression of DMBA-initiated and TPA-promoted mouse-skin papillomas (Shealy et al., 1997). In comparison with control groups, these retinyl ethers were ineffective. Only a few representatives of the benzyl ethers were selected for tests in these assays. […] Because of these and the earlier results (Shealy et al., 1997), testing of retinyl benzyl ethers in the ODC and papilloma assays was discontinued.

[2] = Mammary tissue-to-plasma concentration after intravenous dosing; format: in vivo, rat (female Sprague-Dawley); details: rat, 5 mg/kg i.v., after 24 hr, read-out: ratio of mammary tissue-to-plasma concentrations
[3] = tested on: MNU-induced mammary cancer; details: for Adenocarcinomas, % of Control Group A / Adenocarcinomas, Avg. No. Per Rat / reduction of average number of tumors per rat: 160 days
Description: Briefly, diets were prepared by mixing each retinoid with Wayne meal or Teklad (4%) mash diet. For each kg of diet, the retinoid was dissolved in 12 g ethanol, 19 g trioctanoin, 0.05 mL Tenox 20, and 0.05 mL d,1-alpha tocopherol prior to incorporation into the feed using a Patterson-Kelly blender. Retinoid diet mixtures were stored at 4° C. Portions of each retinoid-diet mixture were analyzed for the added retinoid to ensure homogeneity. Female Sprague-Dawley rats received an i.v. injection of MNU (45 mg/kg body weight) at 50 days of age. Diet supplementation with retinoids was initiated three days after MNU. A group of rats receiving retinyl acetate (1 mmol/kg of diet) served as the positive control. The animals were palpated for mammary tumors 2×/week. At termination of the study, mammary tumors were processed for histological classification. Also, five rats/group had complete necropsies performed. The tissues were examined histologically for pathological lesions as additional toxicological evaluation. Extracts of the liver and mammary gland (5 rats/group) were analyzed by HPLC for retinyl palmitate and/or for the dosed retinoid. Statistical analyses of cancer incidence and latency were determined using logrank analysis, while differences in cancer multiplicity were determined employing the Armitage test.
In this assay, described previously (Grubbs et al., 1995; Shealy el al., 1997), a retinoid dissolved in a solution (vehicle) consisting of ethanol and trioctanoin plus small amounts of Tenox 20 and α-tocopherol was mixed with feed, and the mixture was fed to rats after intravenous injection of MNU.
^a Female Sprague-Dawley rats (10/group) received one i.v. injection of
MNU (45 mg/kg of body weight) at 50 days of age. Diet supplementation with
retinoids was initiated at 52 days of age and was continued until the
study was terminated 160 days after administration of MNU.
^b Treatment with retinoids is stated in millimoles of retinoid per
kilogram of diet (Wayne meal).

[4] = Tissue concentrations resulting from gavage of rats with RTMBE; format: in vivo, rat (female Sprague-Dawley); details: for concentration at 168 h / concentration at 336 h: rat, po, 14 mg/day by gavage; for concentration at 168 h: 7 days; for concentration at 336 h: 14 days
Description: To plasma samples (50-200 μl), ten volumes of acetonitrile were added, and the preparations were centrifuged. The supernatants were evaporated to dryness under nitrogen and reconstituted in the mobile phase (see below). Tissues were homogenized in four volumes of water at 0° C., and each homogenate was extracted with acetonitrile (50 mL/g tissue). From this point, handling of plasma and tissue samples was identical. Portions (25-50 μl) of the reconstituted samples were analyzed by reverse-phase HPLC. The chromatographic system was composed of a Beckman solvent delivery module 110B, analogue interface module 406, programable detector module 166, and autosampler 507. The column was a Hypersil ODS, 5-μ, 250×4.6 mm. Elution was accomplished with a solvent of methanol:0.2%acetic acid (93.5:6.5, v/v) with the final solution containing 0.02% triethylamine. The flow rate was 1 mL/min, with detection at 340 nm.
The concentrations of RTMBE in the serum, mammary gland, and liver of rats, as well as the levels of RP in the liver, were determined after administration of RTMBE by gavage during 14 days (Table 9). […] In order to investigate further the accumulation of retinyl benzyl ethers in mammary tissue, RTMBE, the 2,5-dimethoxybenzyl ether (3b), and the 4-methoxybenzyl (3e) ether were administered intravenously (via a tail vein) at 5 mg/kg to female Sprague-Dawley rats (3 with each retinoid). Acetonitrile extracts of plasma and mammary tissue were analyzed by HPLC. The ratios of mammary tissue-to-plasma concentrations of RTMBE, 3b, and 3e were 183±77, 38±20, and 41±14, respectively, after 24 hr.
^a The dose of 14 mg/day by gavage is equivalent to a feeding dose of 2

[5] = tested on: MNU-induced mammary cancer; assay: 180-day study of RTMBE for suppression of MNU-induced mammary carcinogenesis (Expt. 3); format: in vivo, rat (female Sprague-Dawley); details: second, confirmatory experiment; 2 mmol/kg of diet, 180 days
[6] = Shealy et al., 1997; cited from earlier work
[7] = tested on: serum retinol-binding protein (RBP); assay: Binding to serum retinol-binding protein (RBP): inhibition of [3H]retinol binding; details: % of that of retinol
[8] = mammary gland, read-out: RTMBE, Mammary Gland

COc1cc(COC/C=C(C)/C=C/C=C(C)/C=C/C2=C(C)CCCC2(C)C)cc(OC)c1OC [Compound 2, Retinyl 3,4,5-Trimethoxybenzyl Ether]
NOAEL (in vivo; mouse, in vivo, po): 249 mg/kg/day | Toxic Dose (in vivo; oral gavage in corn oil, 28-29 days): > 249 mg/kg day | clinical toxicity (alopecia, scaly skin, limping) (in vivo; oral gavage, up to highest dose (RTMBE and RMoBE-4: Expt. 2)): No evidence of clinical toxicity | activity in ODC assay [1]: not active in the ODC assay | Kp at 24 h [2]: 183 ± 77 | Adenocarcinomas, % of Control Group A ([3]; 0.5 mmol/kg diet): 100% | Adenocarcinomas, Avg. No. Per Rat ([3]; 0.5 mmol/kg diet): 6.5 | Adenocarcinomas, % of Control Group A ([3]; 1 mmol/kg diet): 55% | Adenocarcinomas, Avg. No. Per Rat ([3]; 1 mmol/kg diet): 3.6 | reduction of average number of tumors per rat ([3]; 1 mmol/kg feed): 46% | Adenocarcinomas, % of Control Group A ([3]; 2 mmol/kg diet): 54% | Adenocarcinomas, Avg. No. Per Rat ([3]; 2 mmol/kg diet): 3.5 | reduction of average number of tumors per rat ([3]; 2 mmol/kg feed): 45% | prevention / suppression of mammary cancer, general statement ([3]; animal model / in vivo initial study): suppress mammary cancer in vivo | liver levels of RP compared with vehicle group ([4]; after 14 days, gavage): only slightly higher than the levels of the vehicle group | change of serum concentration of RTMBE ([4]; between 7 and 14 days, gavage): did not change significantly | increase of concentration in mammary gland ([4]; between 7 and 14 days, gavage): more than two-fold | increase of liver level of RTMBE ([4]; between 7 and 14 days, gavage): 22% | concentration at 168 h ([4]; liver, read-out: RTMBE, Liver): 78900 ± 7500 ng/g | concentration at 336 h ([4]; liver, read-out: RTMBE, Liver): 96100 ± 11100 ng/g | concentration at 168 h [4, 8]: 83300 ± 7300 ng/g | concentration at 336 h [4, 8]: 178000 ± 11100 ng/g | concentration at 168 h ([4]; serum, read-out: RTMBE, Serum): 16300 ± 2500 ng/mL | concentration at 336 h ([4]; serum, read-out: RTMBE, Serum): 17300 ± 2200 ng/mL | reduction of adenocarcinoma formation, compared with retinyl acetate [5]: somewhat more effectively than retinyl acetate | recovery from the feed of rats [6]: recoverable from the feed of rats | inhibition of [3H] retinol-binding (RBP), relative to that of retinol [7]: 70%
